Assay results reported in PMC6424957 (Scientific Reports, 2019).

Columns and labels:
[1] = biological target: T1, porcine liver carboxylesterase (CaE) (Sus scrofa, UniProt Q29550); assay: CaE inhibition (4-nitrophenyl acetate hydrolysis); type: biochemical; details: for inhibition at 20 µM / % inhibition of CaE at 20 µM: mean ± SEM, n ≥ 3, n.a. = not active at 20 µM; for IC50: read-out: IC50 CaE
T1 sequence (Q29550 19-566): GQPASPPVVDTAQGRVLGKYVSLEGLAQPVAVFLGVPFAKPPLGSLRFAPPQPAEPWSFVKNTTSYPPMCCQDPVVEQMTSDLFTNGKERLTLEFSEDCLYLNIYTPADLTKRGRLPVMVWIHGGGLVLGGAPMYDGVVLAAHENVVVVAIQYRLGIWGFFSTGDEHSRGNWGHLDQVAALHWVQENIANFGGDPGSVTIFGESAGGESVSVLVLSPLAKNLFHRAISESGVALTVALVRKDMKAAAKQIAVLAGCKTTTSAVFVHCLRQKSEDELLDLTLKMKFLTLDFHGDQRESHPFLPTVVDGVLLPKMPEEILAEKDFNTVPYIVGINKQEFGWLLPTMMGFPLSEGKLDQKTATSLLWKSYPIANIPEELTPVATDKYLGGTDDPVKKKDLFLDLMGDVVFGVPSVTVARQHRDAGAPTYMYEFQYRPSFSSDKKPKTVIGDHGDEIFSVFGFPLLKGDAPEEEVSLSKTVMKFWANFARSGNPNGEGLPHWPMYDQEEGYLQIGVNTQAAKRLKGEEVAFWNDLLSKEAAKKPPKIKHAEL
Method: Acetylcholinesterase (AChE, EC 3.1.1.7, from human erythrocyte and E. electricus (EeAChE) (type VI-S), butyrylcholinesterase (BChE, EC 3.1.1.8, from equine serum), carboxylesterase (CaE, EC 3.1.1.1, from porcine liver), acetylthiocholine iodide (ATCh), butylthiocholine iodide (BTCh), 5,5′-dithiobis-(2-nitrobenzoic acid) (DTNB), 4-nitrophenyl acetate (4-NPA), were purchased from Sigma-Aldrich (Germany).
AChE and BChE activities were measured by the Ellman method as described earlier. The assay solution consisted of 0.1 M K/Na phosphate buffer pH 7.5, 25 °C with the addition of 0.33 mM DTNB, 0.02 unit/mL of AChE or BChE, and 1 mM of substrate (ATCh or BTCh, respectively). The assays were carried out with a reagent blank containing all components except AChE or BChE to account for non-enzymatic hydrolysis of substrate. In addition, an enzyme blank was included that contained all components except substrate to account for non-substrate sulfhydryl groups. […] The assay solution consisted of 0.1 M K/Na phosphate buffer pH 8.0, 25 °C with the addition of 1 mM 4-nitrophenyl acetate and 0.02 unit/mL of CaE. Assays were carried out with a blank containing all components except CaE.
The test compounds were dissolved in DMSO; the incubation mixture contained 2% (v/v) of the solvent. […] The test compounds were added to the assay solution and preincubated at 25°C with the enzymes for 5 min followed by the addition of substrate. A parallel control was made for the assay solution with no inhibitor. […] Each experiment was performed three times. The results were expressed as the mean ± SEM. The reaction rates in the presence and absence of inhibitor were compared, and the percent of residual enzyme activity due to the presence of test compounds was calculated.

[2] = biological target: T2, AChE from human erythrocytes (Homo sapiens, UniProt P22303); type: biochemical; details: for αKi (non-competitive component), AChE / Ki: Lineweaver-Burk analysis; for Ki: read-out: Ki (competitive component), AChE
T2 construct: Acetylcholinesterase (AChE, EC 3.1.1.7, from human erythrocyte); purchased Sigma-Aldrich (Germany); host or cells: human erythrocytes
T2 sequence (P22303 32-617 isoform P22303-2 limits assumed): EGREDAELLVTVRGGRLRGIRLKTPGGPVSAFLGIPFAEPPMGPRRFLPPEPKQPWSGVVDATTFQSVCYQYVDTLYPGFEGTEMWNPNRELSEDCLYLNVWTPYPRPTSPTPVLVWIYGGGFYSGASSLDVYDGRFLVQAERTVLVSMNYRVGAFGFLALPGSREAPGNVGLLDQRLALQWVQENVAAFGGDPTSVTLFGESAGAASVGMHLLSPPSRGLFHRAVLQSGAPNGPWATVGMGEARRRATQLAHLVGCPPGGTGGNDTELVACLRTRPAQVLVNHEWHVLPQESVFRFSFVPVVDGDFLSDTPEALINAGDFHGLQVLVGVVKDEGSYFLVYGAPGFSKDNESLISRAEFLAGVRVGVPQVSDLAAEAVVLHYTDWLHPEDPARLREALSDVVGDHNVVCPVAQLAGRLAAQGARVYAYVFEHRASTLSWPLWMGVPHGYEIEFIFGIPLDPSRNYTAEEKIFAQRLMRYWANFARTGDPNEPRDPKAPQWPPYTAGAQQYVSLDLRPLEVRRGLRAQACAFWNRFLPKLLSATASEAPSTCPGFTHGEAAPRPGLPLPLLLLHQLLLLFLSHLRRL
Method: (§1) To elucidate the inhibition mechanisms for the active compounds, the AChE and BChE residual activity was determined in the presence of 3 increasing concentrations of the test compounds and 6 decreasing concentrations of the substrates. The test compounds were preincubated with the enzymes at 25 °C for 5 min, followed by the addition of the substrates. Parallel controls were made for an assay of the rate of hydrolysis of the same concentrations of substrates in the solutions with no inhibitor. […] Each experiment was performed three times.

BChE from equine serum = biological target: T3, BChE from equine serum (Equus caballus, UniProt P81908); type: biochemical; details: for αKi (non-competitive component), BChE / Ki: Lineweaver-Burk analysis; for Ki: read-out: Ki (competitive component), BChE
T3 construct: butyrylcholinesterase (BChE, EC 3.1.1.8, from equine serum); purchased Sigma-Aldrich (Germany); host or cells: equine serum
T3 sequence (P81908 whole entry): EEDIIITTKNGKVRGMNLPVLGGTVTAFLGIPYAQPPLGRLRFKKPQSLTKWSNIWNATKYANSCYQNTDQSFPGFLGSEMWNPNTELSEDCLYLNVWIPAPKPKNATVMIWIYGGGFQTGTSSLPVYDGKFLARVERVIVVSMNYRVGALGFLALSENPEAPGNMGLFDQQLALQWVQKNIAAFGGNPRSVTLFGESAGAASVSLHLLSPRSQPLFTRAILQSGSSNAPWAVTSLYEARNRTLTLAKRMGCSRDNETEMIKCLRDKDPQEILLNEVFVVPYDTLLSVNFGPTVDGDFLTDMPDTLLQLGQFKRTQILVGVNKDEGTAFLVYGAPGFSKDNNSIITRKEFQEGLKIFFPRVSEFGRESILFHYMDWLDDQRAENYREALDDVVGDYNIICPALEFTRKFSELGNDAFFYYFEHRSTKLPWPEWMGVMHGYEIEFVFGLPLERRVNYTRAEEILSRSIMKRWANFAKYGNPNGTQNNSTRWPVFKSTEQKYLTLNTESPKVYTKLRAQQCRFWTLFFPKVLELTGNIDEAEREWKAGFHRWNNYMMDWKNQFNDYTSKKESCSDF
Method: as §1

[3] = tested on: isolated rat liver mitochondria; assay: Mitochondrial membrane potential (safranine O); type: biochemical; details: 30 µM, 10-min incubation, mean ± SD, n ≥ 5; for ΔΨm, % depolarization, CI (g/m): energized with Complex-I substrates (glutamate, malate); for ΔΨm, % depolarization, CII (s/r): energized with succinate in the presence of rotenone
From the text: Mitochondria and the mitochondrial permeability transition (MPT) are key players in the cascades of events leading to cell death. Consequently, inhibition of the MPT is a promising target in neuroprotection. On the other hand, depolarization of mitochondria is widely used a predictor of toxicity[72] but depolarization connected with uncoupling of the respiratory chain or stimulation of electron flux can also be cytoprotective. Due to its redox-cycling capability, MB can restore the electron flux in the respiratory chain in the presence of inhibitors of complex-I[74]. […] Consequently, we measured the effect of our conjugates of MB and γ-carbolines on mitochondrial membrane potential under two conditions. (C1) Mitochondria were energized with NADH-dependent substrates of Complex-I (glutamate and malate). (CII) Mitochondria were energized with an FADH2-dependent substrate of Complex II (succinate) in the presence of rotenone, a Complex-I inhibitor. Conjugates (30 μM) were incubated with mitochondria and the effect on mitochondrial membrane potential was measured. For comparison, mitochondria were incubated with MB, MBH2, and Dimebon (30 μM each).
Safranine O (10 µM) was used as a membrane potential probe. Fluorescence intensity at 580 nm (excitation at 520 nm) was measured with Victor3 multi-well fluorescence plate reader (Perkin Elmer, Germany). Mitochondrial protein concentration was 0.2 mg/ml. The medium for measurements contained 75 mM sucrose, 225 mM mannitol, 10 mM K-HEPES, 0.02 mM EGTA, and 1 mM KH2PO4 (pH 7.4, 25 °C). After a 5-min incubation, 5 mM glutamate/malate or 5 mM succinate and 0.5 μM rotenone were added to produce the mitochondrial potential. Then the compounds (30 μM) or the same volume of vehicle (DMSO) were injected into the mitochondrial suspension. After 15–20 min, CaCl2 (12.5 μM) was added to each probe to induce the depolarization of mitochondria and after 5 min 0.5 µM carbonyl cyanide m-chlorophenyl hydrazone (CCCP) was added for maximum depolarization of mitochondria. The level of depolarization (ΔΨm) was calculated from the fluorescence value after a 10-min incubation with 30 µM of compounds (or vehicle) normalized between fluorescence measurements after substrate and CCCP additions.

[4] = tested on: isolated rat liver mitochondria; assay: Restoration of mitochondrial membrane potential after rotenone-induced depolarization; type: biochemical; details: 3 μM compound
From the text: Therefore, we examined the ability of MB, MBH2, and compound 3 to restore membrane potential after depolarization with rotenone. […] It is important to note that successive additions of calcium and the uncoupler carbonyl cyanide m-chlorophenyl hydrazone (CCCP) each caused mitochondrial depolarization (Fig. 6). […]

[5] = Oxygen radical absorbance capacity assay (ORAC-FL); details: for ORAC TE value: ORAC-FL, AAPH, fluorescein, 37 °C, pH 7.4, Trolox taken as 1; for radical-scavenging activity, ORAC-FL method: result in words
Method: The ability of the conjugates to reduce the amount of peroxyl radicals as another characteristic of the antioxidant activity of the compounds was determined using the oxygen radical absorbance capacity by fluorescence (ORAC-FL) method using fluorescein (FL) as a fluorescent probe. The method is based on measuring the decrease in the intensity of fluorescence with time, which characterizes the degree of decay of the fluorescent probe under the influence of peroxyl radicals. In the presence of antioxidants, the degree of decay of the fluorescent probe decreases and, accordingly, the fluorescence time increases.
The ability of compounds to scavenge peroxyl radicals was characterized by the value of the Trolox equivalent (TE, μmol of Trolox per μmol of the tested compound), which is equal to the ratio of the Trolox concentration to the tested compound concentration having the same fluorescence intensity. Peroxyl radical scavenging capacity of Trolox is taken as one (1)[67],[68].
2,2′-Azobis-(amidinopropane) dihydrochloride (AAPH), (±)-6-hydroxy-2,5,7,8-tetramethylchromane-2-carboxylic acid (Trolox) and fluorescein (FL) were purchased from Sigma-Aldrich. The reaction was carried out at 37 °C in 75 mM K,Na phosphate buffer (pH 7.4), and the final reaction mixture was 200 µL. The tested compounds and Trolox standard were dissolved in DMSO to 10 mM and further diluted in 75 mM K,Na phosphate buffer (pH 7.4). […] The blank was composed of 20 µL 75 mM K,Na phosphate buffer (pH 7.4) containing 2% (v/v) DMSO, 120 µL FL and 60 µL AAPH, and was added in each assay. Antioxidant (the test compound or Trolox, 20 µL) and FL (120 µL, final concentration: 70 nM) solutions were placed in a black 96-well microplate and were pre-incubated for 15 min at 37 °C. AAPH solution (60 µL, final concentration 12 mM) was then added rapidly using a multichannel pipette. The fluorescence was recorded every minute for 100 min. A Trolox standard curve was also obtained in each assay. All reactions were carried out in triplicate and at least three different assays were performed for each sample.
Antioxidant curves (fluorescence vs. time) were first normalized to the curve of the blank (without antioxidant) corresponding to the same assay, and the area under the fluorescence decay curve (AUC) was calculated. The net AUC corresponding to a sample was calculated by subtracting the AUC corresponding to the blank. Regression equations were calculated by plotting the net AUC against the antioxidant concentration. The ORAC value was obtained by dividing the slope of the latter curve by the slope of the Trolox curve obtained in the same assay. […] Data were expressed as means ± SEM.

[6] = cited from earlier work
[7] = Lineweaver-Burk plots, changes in Vmax and Km

Q: Which results are given for Cc1ccc2c(c1)c1c(n2CCC(=O)N2c3ccc(N(C)C)cc3Sc3cc(N(C)C)ccc32)CCN(C)C1 [Compound 3]?
A: inhibition at 20 µM [1]: 26%; IC50 [1]: > 20 µM; αKi (non-competitive component), AChE [2]: 3.35 ± 0.31 µM; Ki [2]: 0.88 ± 0.07 µM; type of AChE inhibition [2, 7]: mixed-type inhibition; αKi (non-competitive component), BChE (BChE from equine serum): 2.09 ± 0.19 µM; Ki (BChE from equine serum): 0.37 ± 0.03 µM; type of BChE inhibition (BChE from equine serum; [7]): mixed-type inhibition; ΔΨm, % depolarization, CI (g/m) [3]: 29 ± 11%; ΔΨm, % depolarization, CII (s/r) [3]: 67 ± 2%; recovery of ΔΨm after rotenone-induced depolarization [4]: recovered; ORAC TE value [5]: 7.44 ± 0.74 µmol Trolox/ µmol comp.

Q: Which results are given for CN1CCc2c(c3ccccc3n2CCC(=O)N2c3ccc(N(C)C)cc3Sc3cc(N(C)C)ccc32)C1.Cl.Cl.Cl [Compound 1]?
A: % inhibition of CaE at 20 µM [1]: 21.5 ± 2.3%; IC50 [1]: > 20 µM; ΔΨm, % depolarization, CI (g/m) [3]: 20 ± 1%; ΔΨm, % depolarization, CII (s/r) [3]: 64 ± 2%; ORAC TE value [5]: 7.28 ± 0.65 µmol Trolox/ µmol comp.

Q: For CN(C)c1ccc2c(c1)Sc1cc(N(C)C)ccc1N2 [MBH2, leucomethylene blue, reference compound], which inhibition at 20 µM [1] is on record?
A: 17.2%

Q: And the IC50 [1]?
A: > 20 µM

Q: And the “ΔΨm, % depolarization, CII (s/r)” value [3]?
A: 18 ± 1%

Q: What about the “recovery of ΔΨm after rotenone-induced depolarization” value [4] of the same compound?
A: recovered

Q: And the “radical-scavenging activity, ORAC-FL method” value [5]?
A: not detectable

Q: With CN(C)c1ccc2nc3ccc(=[N+](C)C)cc-3sc2c1 [MB, methylene blue, reference compound] as the compound, how does the inhibition at 20 µM [1] read?
A: 12.3%

Q: What about the IC50 [1] of the same compound?
A: > 20 µM

Q: And the “ΔΨm, % depolarization, CI (g/m)” value [3]?
A: 14 ± 7%

Q: What about the “ΔΨm, % depolarization, CII (s/r)” value [3] of the same compound?
A: 40 ± 9%

Q: What about the “recovery of ΔΨm after rotenone-induced depolarization” value [4] of the same compound?
A: recovered

Q: And the redox potential [6]?
A: 11 mV

Q: And the “radical-scavenging activity, ORAC-FL method” value [5]?
A: not detectable

Q: Which results are given for Cc1ccc2c(c1)c1c(n2CCC(=O)N2c3ccc(N(C)C)cc3Sc3cc(N(C)C)ccc32)CCN(C(C)C)C1.Cl.Cl.Cl [Compound 6]?
A: % inhibition of CaE at 20 µM [1]: 19.5 ± 1.8%; IC50 [1]: > 20 µM; αKi (non-competitive component), AChE [2]: 13.4 ± 1.2 µM; Ki [2]: 3.52 ± 0.29 µM; αKi (non-competitive component), BChE (BChE from equine serum): 2.64 ± 0.24 µM; Ki (BChE from equine serum): 0.53 ± 0.04 µM; ΔΨm, % depolarization, CI (g/m) [3]: 8 ± 2%; ΔΨm, % depolarization, CII (s/r) [3]: 44 ± 5%; ORAC TE value [5]: 7.12 ± 0.64 µmol Trolox/ µmol comp.

Q: Which results are given for CN1CCc2c(c3cc(F)ccc3n2CCC(=O)N2c3ccc(N(C)C)cc3Sc3cc(N(C)C)ccc32)C1 [Compound 7]?
A: inhibition at 20 µM [1]: 13.8%; IC50 [1]: > 20 µM; ΔΨm, % depolarization, CI (g/m) [3]: 13 ± 3%; ΔΨm, % depolarization, CII (s/r) [3]: 67 ± 1%; ORAC TE value [5]: 10.93 ± 0.98 µmol Trolox/ µmol comp.

Q: Which results are given for CCN1CCc2c(c3ccccc3n2CCC(=O)N2c3ccc(N(C)C)cc3Sc3cc(N(C)C)ccc32)C1.Cl.Cl.Cl [Compound 2]?
A: % inhibition of CaE at 20 µM [1]: 18.1 ± 1.7%; IC50 [1]: > 20 µM; ΔΨm, % depolarization, CI (g/m) [3]: 7 ± 1%; ΔΨm, % depolarization, CII (s/r) [3]: 48 ± 1%; ORAC TE value [5]: 8.80 ± 0.96 µmol Trolox/ µmol comp.

Q: With CCN1CCc2c(c3cc(C)ccc3n2CCC(=O)N2c3ccc(N(C)C)cc3Sc3cc(N(C)C)ccc32)C1.Cl.Cl.Cl [Compound 4] as the compound, how does the “% inhibition of CaE at 20 µM” value [1] read?
A: 15.7 ± 1.8%

Q: What about the IC50 [1] of the same compound?
A: > 20 µM

Q: And the “ΔΨm, % depolarization, CI (g/m)” value [3]?
A: 9 ± 1%

Q: What about the “ΔΨm, % depolarization, CII (s/r)” value [3] of the same compound?
A: 43 ± 3%

Q: And the “ORAC TE value” [5]?
A: 9.82 ± 0.79 µmol Trolox/ µmol comp.

Q: With CCCN1CCc2c(c3cc(C)ccc3n2CCC(=O)N2c3ccc(N(C)C)cc3Sc3cc(N(C)C)ccc32)C1.Cl.Cl.Cl [Compound 5] as the compound, how does the “% inhibition of CaE at 20 µM” value [1] read?
A: 9.8 ± 1.4%

Q: What about the IC50 [1] of the same compound?
A: > 20 µM

Q: And the “ΔΨm, % depolarization, CI (g/m)” value [3]?
A: 17 ± 2%

Q: What about the “ΔΨm, % depolarization, CII (s/r)” value [3] of the same compound?
A: 69 ± 2%

Q: And the “ORAC TE value” [5]?
A: 7.70 ± 0.84 µmol Trolox/ µmol comp.
